Laboratory results: ChEMBL document CHEMBL5046279, “Discovery of a Partial Glucokinase Activator Clinical Candidate: Diethyl ((3-(3-((5-(Azetidine-1-carbonyl)pyrazin-2-yl)oxy)-5-isopropoxybenzamido)-1H-pyrazol-1-yl)methyl)phosphonate (BMS-820132)” (J Med Chem, 2022)
In brackets after ≈: the same amount, converted by molar mass.

Legend:
[1] = Oral bioavailability in CD1 mouse at 5 mg/kg measured upto 24 hrs by LC-MS/MS analysis; format: ADME, organism-based; settings: in vivo
[2] = Protein binding in mouse serum; format: ADME, cell-free; settings: pooled result: one value given for 5 cell lines, strains, targets or settings, read-out: PB (converted)
[3] = Protein binding in human serum; format: ADME, cell-free; settings: read-out: PB (converted)
Escherichia coli [4] = assay: Mutagenicity in Escherichia coli WP2 uvrA at 5000 ug/plate in absence of S9 fraction by Ames test; format: toxicity, organism-based
CHO = assay: Mutagenicity in CHO cells; format: toxicity, cell-based, Cricetulus griseus; settings: chinese hamster
[5] = biological target: ATP-dependent translocase ABCB1 (Homo sapiens, UniProt P08183); assay: Inhibition of P-gp transporter (unknown origin)
[6] = Systemic plasma clearance in cynomolgus monkey at 3 mg/kg, iv measured upto 24 hrs; format: ADME, organism-based, Macaca fascicularis
[7] = Volume of distribution at steady state in Sprague-Dawley rat at 2.5 mg/kg, iv measured upto 24 hrs by LC-MS/MS analysis; format: ADME, organism-based; settings: in vivo, read-out: Vdss
[8] = Half life in cynomolgus monkey at 3 mg/kg, iv measured upto 24 hrs; format: ADME, organism-based, Macaca fascicularis; settings: in vivo
[9] = Cmax in Sprague-Dawley rat at 5 mg/kg, po measured upto 24 hrs by LC-MS/MS analysis; format: ADME, organism-based; set-up: route oral, dose 5 mg/kg, time <=24; settings: in vivo
Mus musculus [10] = assay: Anti-hyperglycemic activity in C57BL/6J DIO mouse assessed as reduction in plasma glucose level at 3 umol/kg, po qd measured on day 14 by OGTT; format: functional; set-up: scale not given: the % may be the effect or the level left; settings: dose 3 µM/Kg; time 24 hrs; at 3 µmol/kg
Cytochrome P450 2C8 = biological target: T1, Cytochrome P450 2C8 (Homo sapiens, UniProt P10632); assay: Inhibition of CYP2C8 (unknown origin); format: ADME
T1 sequence (P10632 whole entry): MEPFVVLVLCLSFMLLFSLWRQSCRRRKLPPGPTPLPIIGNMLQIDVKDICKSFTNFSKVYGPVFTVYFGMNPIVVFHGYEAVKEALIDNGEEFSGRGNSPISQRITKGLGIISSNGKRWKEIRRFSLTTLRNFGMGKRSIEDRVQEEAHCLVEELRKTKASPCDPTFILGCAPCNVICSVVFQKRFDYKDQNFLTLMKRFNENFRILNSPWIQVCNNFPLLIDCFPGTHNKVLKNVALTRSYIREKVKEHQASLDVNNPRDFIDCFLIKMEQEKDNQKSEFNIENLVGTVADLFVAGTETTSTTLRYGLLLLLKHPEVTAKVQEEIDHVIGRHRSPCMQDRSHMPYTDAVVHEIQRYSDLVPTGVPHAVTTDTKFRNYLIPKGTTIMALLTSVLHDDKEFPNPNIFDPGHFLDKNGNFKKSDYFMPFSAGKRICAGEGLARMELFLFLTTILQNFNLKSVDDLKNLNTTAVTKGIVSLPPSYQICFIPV

[11] = Volume of distribution at steady state in cynomolgus monkey at 3 mg/kg, iv measured upto 24 hrs; format: ADME, organism-based, Macaca fascicularis; settings: in vivo, read-out: Vdss
Mus musculus [12] = assay: Anti-hyperglycemic activity in C57BL/6J DIO mouse assessed as reduction in plasma glucose AUC at 1 umol/kg incubated for 120 mins by OGTT; format: functional; set-up: scale not given: the % may be the effect or the level left; settings: dose 1 µM/Kg, 2 h, at 1 µmol/kg
Mus musculus [13] = assay: Anti-hyperglycemic activity in C57BL/6J DIO mouse assessed as reduction in plasma glucose AUC at 3 umol/kg, po measured after 120 mins by OGTT; format: functional; set-up: scale not given: the % may be the effect or the level left; settings: dose 3 µM/Kg, 2 h, at 3 µmol/kg
Salmonella typhimurium [14] = assay: Mutagenicity in Salmonella typhimurium TA100 at 5000 ug/plate in presence of S9 fraction by Ames test; format: toxicity, organism-based; settings: salmonella enterica subsp. enterica serovar typhimurium, dose 5000 µg
Salmonella typhimurium [15] = assay: Mutagenicity in Salmonella typhimurium TA98 at 5000 ug/plate in presence of S9 fraction by Ames test; format: toxicity, organism-based; settings: salmonella enterica subsp. enterica serovar typhimurium, dose 5000 µg
hERG (KCNH2) = hERG (KCNH2) (Homo sapiens, UniProt Q12809); assay: Inhibition of hERG channel at 30 uM by patch clamp assay relative to control; format: toxicity
Salmonella typhimurium [16] = assay: Mutagenicity in Salmonella typhimurium TA1537 at 5000 ug/plate in absence of S9 fraction by Ames test; format: toxicity, organism-based; settings: salmonella enterica subsp. enterica serovar typhimurium; dose 5000 µg
[17] = Tmax in CD1 mouse at 5 mg/kg, po measured upto 24 hrs by LC-MS/MS analysis; format: ADME, organism-based; settings: in vivo
[18] = Cmax in Beagle dog at 3 mg/kg, po measured upto 24 hrs; format: ADME, organism-based, Canis lupus familiaris; set-up: route oral, dose 3 mg/kg, time <=24; settings: in vivo
[19] = Half life in Sprague-Dawley rat at 2.5 mg/kg, po measured upto 24 hrs by LC-MS/MS analysis; format: ADME, organism-based; settings: in vivo
Mus musculus [20] = assay: Anti-hyperglycemic activity in C57BL/6J DIO mouse assessed as reduction in plasma glucose level at 3 umol/kg measured at 1 hr post dose on day 1 by OGTT; format: functional; set-up: scale not given: the % may be the effect or the level left; settings: dose 3 µM/Kg, at 3 µmol/kg
Salmonella typhimurium [21] = assay: Mutagenicity in Salmonella typhimurium TA98 at 5000 ug/plate in absence of S9 fraction by Ames test; format: toxicity, organism-based; settings: salmonella enterica subsp. enterica serovar typhimurium; dose 5000 µg
Mus musculus [22] = assay: Anti-hyperglycemic activity in C57BL/6J DIO mouse assessed as reduction in plasma glucose level at 30 umol/kg measured at 1 hr post dose on day 1 by OGTT; format: functional; set-up: scale not given: the % may be the effect or the level left; settings: dose 30 µM/Kg, at 30 µmol/kg
[23] = Volume of distribution at steady state in Beagle dog at 3 mg/kg, iv measured upto 24 hrs; format: ADME, organism-based, Canis lupus familiaris; settings: in vivo, read-out: Vdss
[24] = biological target: T2, Nuclear receptor subfamily 1 group I member 2 (Homo sapiens, UniProt O75469); assay: Induction of human PXR upto 50 uM
T2 sequence (O75469 whole entry): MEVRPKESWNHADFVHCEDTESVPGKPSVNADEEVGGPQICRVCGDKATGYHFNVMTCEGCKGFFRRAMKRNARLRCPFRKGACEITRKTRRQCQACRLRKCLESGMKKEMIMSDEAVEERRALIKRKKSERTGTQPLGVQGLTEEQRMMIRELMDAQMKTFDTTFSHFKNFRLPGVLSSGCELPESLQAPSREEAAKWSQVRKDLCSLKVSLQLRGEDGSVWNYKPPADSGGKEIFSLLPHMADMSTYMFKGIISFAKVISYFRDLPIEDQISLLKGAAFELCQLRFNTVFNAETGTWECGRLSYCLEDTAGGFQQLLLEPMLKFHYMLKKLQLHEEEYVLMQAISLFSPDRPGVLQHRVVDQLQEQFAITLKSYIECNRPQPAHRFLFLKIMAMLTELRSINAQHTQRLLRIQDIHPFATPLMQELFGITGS

[25] = Half life in Beagle dog at 3 mg/kg, iv measured upto 24 hrs; format: ADME, organism-based, Canis lupus familiaris; settings: in vivo
[26] = Aqueous solubility of the compound at pH 6.5 using amorphous form of sample; format: physicochemical; settings: aqueous solution
[27] = AUC (0 to 24 hrs) in Beagle dog at 3 mg/kg, iv measured upto 24 hrs; format: ADME, organism-based, Canis lupus familiaris; set-up: route intravenous, dose 3 mg/kg, time <=24; settings: in vivo
Escherichia coli [28] = assay: Mutagenicity in Escherichia coli WP2 uvrA at 5000 ug/plate in presence of S9 fraction by Ames test; format: toxicity, organism-based; settings: dose 5000 µg
[29] = AUC (0 to 24 hrs) in CD1 mouse at 5 mg/kg, po measured upto 24 hrs by LC-MS/MS analysis; format: ADME, organism-based; set-up: route oral, dose 5 mg/kg, time <=24; settings: in vivo
[30] = Systemic plasma clearance in Sprague-Dawley rat at 2.5 mg/kg, iv measured upto 24 hrs by LC-MS/MS analysis; format: ADME, organism-based

Chain of hERG (KCNH2) (Q12809 whole entry): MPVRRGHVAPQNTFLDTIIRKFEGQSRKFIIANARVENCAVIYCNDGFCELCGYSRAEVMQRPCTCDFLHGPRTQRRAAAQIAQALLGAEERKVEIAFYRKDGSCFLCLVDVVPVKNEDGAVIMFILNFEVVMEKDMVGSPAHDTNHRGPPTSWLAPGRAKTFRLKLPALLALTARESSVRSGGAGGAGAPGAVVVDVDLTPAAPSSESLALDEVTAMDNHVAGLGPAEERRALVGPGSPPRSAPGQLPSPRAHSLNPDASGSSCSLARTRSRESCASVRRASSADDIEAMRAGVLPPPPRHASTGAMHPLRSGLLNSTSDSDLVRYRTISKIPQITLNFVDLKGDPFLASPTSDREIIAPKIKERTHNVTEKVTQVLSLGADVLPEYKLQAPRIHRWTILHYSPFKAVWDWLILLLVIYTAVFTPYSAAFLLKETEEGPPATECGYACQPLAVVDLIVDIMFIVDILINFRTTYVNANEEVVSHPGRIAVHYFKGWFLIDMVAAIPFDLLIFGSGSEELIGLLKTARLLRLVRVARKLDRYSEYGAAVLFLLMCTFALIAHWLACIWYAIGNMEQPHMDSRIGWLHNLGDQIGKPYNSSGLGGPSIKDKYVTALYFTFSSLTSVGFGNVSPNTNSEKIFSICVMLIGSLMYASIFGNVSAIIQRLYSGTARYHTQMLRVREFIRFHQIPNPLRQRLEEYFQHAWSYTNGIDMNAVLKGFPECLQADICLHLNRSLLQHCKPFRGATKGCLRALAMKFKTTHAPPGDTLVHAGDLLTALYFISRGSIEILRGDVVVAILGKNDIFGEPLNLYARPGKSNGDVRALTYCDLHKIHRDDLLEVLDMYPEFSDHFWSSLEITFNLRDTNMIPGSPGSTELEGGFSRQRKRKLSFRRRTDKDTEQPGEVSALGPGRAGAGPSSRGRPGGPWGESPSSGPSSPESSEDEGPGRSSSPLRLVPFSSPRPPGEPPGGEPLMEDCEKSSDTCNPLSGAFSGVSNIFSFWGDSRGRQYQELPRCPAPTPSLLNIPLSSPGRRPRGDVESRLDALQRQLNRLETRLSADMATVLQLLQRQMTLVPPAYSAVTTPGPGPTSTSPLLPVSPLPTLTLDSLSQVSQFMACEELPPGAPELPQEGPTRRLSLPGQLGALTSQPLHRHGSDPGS
Chain of ATP-dependent translocase ABCB1 (P08183 whole entry): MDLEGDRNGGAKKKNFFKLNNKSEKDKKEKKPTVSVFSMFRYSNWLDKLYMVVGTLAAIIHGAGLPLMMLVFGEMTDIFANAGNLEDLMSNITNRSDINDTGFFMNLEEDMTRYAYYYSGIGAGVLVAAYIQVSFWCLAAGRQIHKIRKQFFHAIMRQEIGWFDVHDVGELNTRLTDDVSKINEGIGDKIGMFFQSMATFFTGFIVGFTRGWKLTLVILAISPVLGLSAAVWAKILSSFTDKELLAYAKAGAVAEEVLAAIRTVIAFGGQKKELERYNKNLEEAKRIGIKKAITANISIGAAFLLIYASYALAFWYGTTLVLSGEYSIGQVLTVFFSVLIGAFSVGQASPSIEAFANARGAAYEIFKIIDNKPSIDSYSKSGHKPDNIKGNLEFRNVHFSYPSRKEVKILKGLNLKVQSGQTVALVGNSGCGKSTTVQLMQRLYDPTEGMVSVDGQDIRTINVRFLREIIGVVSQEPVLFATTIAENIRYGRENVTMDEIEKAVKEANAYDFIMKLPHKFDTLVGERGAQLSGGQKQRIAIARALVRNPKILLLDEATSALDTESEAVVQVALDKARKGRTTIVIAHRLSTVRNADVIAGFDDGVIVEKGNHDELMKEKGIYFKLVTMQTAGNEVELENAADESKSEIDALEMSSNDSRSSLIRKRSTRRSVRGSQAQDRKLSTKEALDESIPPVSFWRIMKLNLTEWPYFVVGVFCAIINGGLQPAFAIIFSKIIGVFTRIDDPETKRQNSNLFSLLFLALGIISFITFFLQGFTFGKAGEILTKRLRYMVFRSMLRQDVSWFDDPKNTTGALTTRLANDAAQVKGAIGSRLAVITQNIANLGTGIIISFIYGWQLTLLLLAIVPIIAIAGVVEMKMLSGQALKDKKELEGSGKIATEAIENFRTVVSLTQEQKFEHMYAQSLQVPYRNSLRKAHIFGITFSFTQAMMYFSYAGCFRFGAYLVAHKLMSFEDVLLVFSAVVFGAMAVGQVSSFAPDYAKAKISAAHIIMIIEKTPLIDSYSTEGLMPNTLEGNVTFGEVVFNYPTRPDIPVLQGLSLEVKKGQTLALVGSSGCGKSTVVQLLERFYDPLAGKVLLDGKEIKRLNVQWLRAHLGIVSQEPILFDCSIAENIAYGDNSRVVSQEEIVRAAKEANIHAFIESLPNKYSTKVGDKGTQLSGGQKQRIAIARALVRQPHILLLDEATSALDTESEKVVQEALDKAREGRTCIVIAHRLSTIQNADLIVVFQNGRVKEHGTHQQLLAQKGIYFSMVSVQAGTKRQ

CCOP(=O)(Cn1ccc(NC(=O)c2cc(Oc3cnc(C(=O)N4CCC4)cn3)cc(OC(C)C)c2)n1)OCC
bioavailability [1]: 100% | fraction unbound [2]: 0.168 | fraction unbound [3]: 0.054 | Activity (Escherichia coli [4]): Non-Toxic | Activity (CHO): Toxic | IC50 [5]: 55 µM | clearance [6]: 22.7 mL/min/kg | Vd [7]: 0.3 L/kg | half-life [8]: 1.9 h | Cmax [9]: 13 µM | Activity (Mus musculus [10]): -16% | IC50 (Cytochrome P450 2C8): 7.7 µM | Vd [11]: 1.1 L/kg | Activity (Mus musculus [12]): -28% | Activity (Mus musculus [13]): -31% | Activity (Salmonella typhimurium [14]): Non-Toxic | Activity (Salmonella typhimurium [15]): Non-Toxic | inhibition at 30 µM (hERG (KCNH2)): 29% | Activity (Salmonella typhimurium [16]): Non-Toxic | Tmax [17]: 0.5 h | Cmax [18]: 4.9 µM | half-life [19]: 0.9 h | Activity (Mus musculus [20]): -32% | Activity (Salmonella typhimurium [21]): Non-Toxic | Activity (Mus musculus [22]): -46% | Vd [23]: 0.5 L/kg | Activity [24]: Not Active | half-life [25]: 1.8 h | solubility [26]: 10 µg/mL (≈ 17.5 µM) | AUC(0-t) [27]: 12.3 µM·h | Activity (Escherichia coli [28]): Non-Toxic | AUC(0-t) [29]: 49.7 µM·h | clearance [30]: 4.4 mL/min/kg
